Reference: paper PMC8971525, “A New Strategy for Multitarget Drug Discovery/Repositioning Through the Identification of Similar 3D Amino Acid Patterns Among Proteins Structures: The Case of Tafluprost and its Effects on Cardiac Ion Channels” (Frontiers in Pharmacology, 2022)

What was measured:
NaV1.5 = target: T1, NaV1.5 (Homo sapiens, UniProt Q14524); assay: two-electrode voltage clamp in Xenopus oocytes, block of inward current; format: cell-based
T1 construct: gene SCN5A; human Nav1.5 (hH1, M77235) cRNA expressed in Xenopus laevis oocytes
T1 sequence (Q14524 whole entry): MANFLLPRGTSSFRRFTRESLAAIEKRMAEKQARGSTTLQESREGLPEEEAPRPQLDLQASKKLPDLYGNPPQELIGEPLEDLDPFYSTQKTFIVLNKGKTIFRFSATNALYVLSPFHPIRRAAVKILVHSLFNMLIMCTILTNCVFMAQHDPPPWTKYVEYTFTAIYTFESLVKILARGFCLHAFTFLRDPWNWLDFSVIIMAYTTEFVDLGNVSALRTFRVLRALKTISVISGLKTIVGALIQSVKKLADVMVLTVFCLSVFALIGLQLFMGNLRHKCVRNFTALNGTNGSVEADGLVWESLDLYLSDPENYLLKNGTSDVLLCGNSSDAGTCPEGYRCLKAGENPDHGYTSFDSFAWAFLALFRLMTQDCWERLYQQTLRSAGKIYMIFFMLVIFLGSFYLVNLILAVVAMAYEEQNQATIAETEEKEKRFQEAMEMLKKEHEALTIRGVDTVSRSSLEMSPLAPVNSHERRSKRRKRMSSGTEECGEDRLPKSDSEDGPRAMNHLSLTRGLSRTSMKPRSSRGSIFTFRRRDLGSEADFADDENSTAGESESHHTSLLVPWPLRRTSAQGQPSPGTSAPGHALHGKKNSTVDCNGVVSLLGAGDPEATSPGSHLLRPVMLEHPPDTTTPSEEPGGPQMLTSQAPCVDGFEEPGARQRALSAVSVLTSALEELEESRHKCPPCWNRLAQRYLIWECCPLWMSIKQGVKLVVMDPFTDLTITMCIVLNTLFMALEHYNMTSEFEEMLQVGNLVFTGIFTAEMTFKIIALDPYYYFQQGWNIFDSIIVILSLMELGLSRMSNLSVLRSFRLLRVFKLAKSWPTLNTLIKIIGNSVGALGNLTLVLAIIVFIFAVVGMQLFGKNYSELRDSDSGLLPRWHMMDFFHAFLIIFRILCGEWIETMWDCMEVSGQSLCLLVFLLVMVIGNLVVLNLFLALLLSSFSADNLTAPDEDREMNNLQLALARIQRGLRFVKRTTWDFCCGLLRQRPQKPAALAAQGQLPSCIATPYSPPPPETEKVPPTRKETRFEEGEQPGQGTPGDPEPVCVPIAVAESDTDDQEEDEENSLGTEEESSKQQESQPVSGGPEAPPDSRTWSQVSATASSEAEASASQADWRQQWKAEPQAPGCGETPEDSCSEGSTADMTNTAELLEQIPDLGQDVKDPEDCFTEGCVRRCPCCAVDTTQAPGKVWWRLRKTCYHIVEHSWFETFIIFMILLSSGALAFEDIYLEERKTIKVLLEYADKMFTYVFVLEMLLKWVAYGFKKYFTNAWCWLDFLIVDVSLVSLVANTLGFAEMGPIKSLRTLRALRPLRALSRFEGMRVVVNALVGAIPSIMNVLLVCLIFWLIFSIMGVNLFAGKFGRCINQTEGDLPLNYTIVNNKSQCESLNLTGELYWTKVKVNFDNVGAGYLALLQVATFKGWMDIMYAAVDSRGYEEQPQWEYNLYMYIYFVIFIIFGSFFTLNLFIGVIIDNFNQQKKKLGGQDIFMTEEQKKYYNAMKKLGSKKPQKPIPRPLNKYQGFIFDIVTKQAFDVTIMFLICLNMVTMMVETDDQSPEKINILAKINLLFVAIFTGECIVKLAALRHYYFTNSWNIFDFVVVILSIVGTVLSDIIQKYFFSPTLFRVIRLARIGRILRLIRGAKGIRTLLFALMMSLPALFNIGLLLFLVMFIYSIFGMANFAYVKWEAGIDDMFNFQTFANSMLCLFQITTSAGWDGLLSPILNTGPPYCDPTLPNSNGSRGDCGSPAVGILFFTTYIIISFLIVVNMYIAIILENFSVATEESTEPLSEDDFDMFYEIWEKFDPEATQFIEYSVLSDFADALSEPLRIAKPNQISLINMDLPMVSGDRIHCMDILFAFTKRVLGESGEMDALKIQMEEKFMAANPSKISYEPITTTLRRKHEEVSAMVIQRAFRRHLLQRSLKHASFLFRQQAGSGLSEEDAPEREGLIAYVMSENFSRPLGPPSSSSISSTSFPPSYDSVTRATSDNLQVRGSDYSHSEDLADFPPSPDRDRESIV

TASK-1 = target: T2, TASK-1 (Homo sapiens, UniProt O14649); assay: two-electrode voltage clamp in Xenopus oocytes, block of outward current; format: cell-based
T2 construct: gene KCNK3; human TASK-1 (KCNK3, NM_002246) cRNA expressed in Xenopus laevis oocytes
T2 sequence (O14649 whole entry): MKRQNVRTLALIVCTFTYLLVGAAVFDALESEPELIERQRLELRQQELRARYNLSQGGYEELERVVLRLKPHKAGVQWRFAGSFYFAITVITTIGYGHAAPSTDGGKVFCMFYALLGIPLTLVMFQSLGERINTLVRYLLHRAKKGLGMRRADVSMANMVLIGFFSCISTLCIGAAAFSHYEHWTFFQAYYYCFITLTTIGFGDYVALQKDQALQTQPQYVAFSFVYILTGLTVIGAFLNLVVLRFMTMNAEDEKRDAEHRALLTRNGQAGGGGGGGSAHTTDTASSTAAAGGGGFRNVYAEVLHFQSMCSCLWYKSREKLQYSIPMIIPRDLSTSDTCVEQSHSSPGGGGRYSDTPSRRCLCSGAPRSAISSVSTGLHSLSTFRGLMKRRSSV

Structure (SMILES): CC(C)OC(=O)CCC/C=C\C[C@@H]1[C@@H](/C=C/C(F)(F)COc2ccccc2)[C@H](O)C[C@@H]1O [tafluprost]
- IC50 (NaV1.5): ~76 µM
- EC50 (TASK-1): 0.186 ± 0.04 µM
